The subject of experiment [1] is Cy5-hTERT-FL (DNA, G4) GGGGAGGGGCTGGGAGGGCCCGGAGGGGGCTGGGCCGGGGACCCGGGAGGGGTCGGGACGGGGCGGGG
The experiment is described as follows: microscale thermophoresis. The settings on record: 25 mM KCl, pH 7.2, 1.5% DMSO. Background: In MST a laser heats a spot of the sample, and binding alters the fluorescence response.

For experiment [2], the system named is TERT-FL (hTERT-FL) (DNA, G4) GGGGAGGGGCTGGGAGGGCCCGGAGGGGGCTGGGCCGGGGACCCGGGAGGGGTCGGGACGGGGCGGGG
The experiment is described as follows: CD melting, 260 nm. As to conditions: 20 mM KCl; 25 μM compound, 1.1 μM DNA.

Experiment [3] shares this test system. The experiment is described as follows: competition dialysis. As to conditions: 185 mM K+, phosphate buffer, RT, 5 μM compound, 75 μM DNA as tetrads, per tetrad, per base.
Experiment [4] deals with AT duplex (DNA, hairpin) ATATATATATCCCCATATATATAT
The experiment is described as follows: competition dialysis. The settings on record: 185 mM K+, phosphate buffer, RT, 5 μM compound, 75 μM DNA as base pairs, per base pair.

In experiment [5] the test system is GC duplex (DNA, hairpin) GCGCGCGCGCTTTTGCGCGCGCGC
Put plainly: competition dialysis. The settings on record: 185 mM K+, phosphate buffer, RT, 5 μM compound, 75 μM DNA as base pairs, per base pair.

Experiment [6] has as its system c-Myc G4 (DNA, G4) TGAGGGTGGGTAGGGTGGGTAA
The experiment is described as follows: competition dialysis. As to conditions: 185 mM K+, phosphate buffer, RT, 5 μM compound, 75 μM DNA as tetrads, per tetrad, per base.

Experiment [7] has as its system H-Tel G4 (DNA, G4) AGGGTTAGGGTTAGGGTTAGGG
Put plainly: competition dialysis. The settings on record: 185 mM K+, phosphate buffer, RT, 5 μM compound, 75 μM DNA as tetrads, per tetrad, per base.

In experiment [8] the test system is GC Triplex (DNA, triplex) CCCCCCCCTTTTGGGGGGGGTTTTCCCCCCCC
The experiment is described as follows: competition dialysis. As to conditions: 185 mM K+, phosphate buffer, RT, 5 μM compound, 75 μM DNA as triplets, per triplet, per base.

Experiment [9] relates to PQS12 (DNA, G4) AGGGGAGGGGCTGGGAGGGCCCGGAGGGGGCTGGGCCGGGGACCCGGGA
The experiment is described as follows: competition dialysis. As to conditions: 185 mM K+; phosphate buffer, RT, 5 μM compound, 75 μM DNA as tetrads.

The subject of experiment [10] is PQS23 (DNA, G4) AGGGGGCTGGGCCGGGGACCCGGGAGGGGTCGGGACGGGGCGGGG
The experiment is described as follows: competition dialysis. The settings on record: 185 mM K+; phosphate buffer, RT, 5 μM compound, 75 μM DNA as tetrads.

In experiment [11] the test system is PQS23 (FRET-labelled) (DNA, G4) AGGGGGCTGGGCCGGGGACCCGGGAGGGGTCGGGACGGGGCGGGG
Put plainly: fluorescence thermal shift assay. As to conditions: 100 μM compound, 0.5 μM DNA, phosphate buffer.

For experiment [12], the system named is Ctrl HP (FRET-labelled) (DNA, hairpin) GCATGCTTTTGCATGC
The experiment is described as follows: fluorescence thermal shift assay. The settings on record: 100 μM compound, 0.5 μM DNA, phosphate buffer.

Experiment [13] relates to PQS12 (FRET-labelled) (DNA, G4) AGGGGAGGGGCTGGGAGGGCCCGGAGGGGGCTGGGCCGGGGACCCGGGA
The experiment is described as follows: fluorescence thermal shift assay. As to conditions: 100 mM K+; 100 μM compound, 0.5 μM DNA, phosphate buffer.

We go through nine compounds from paper PMC9202945 (2022).

A word on the apparent Kd: it is the concentration giving half-maximal binding under the conditions of the assay.

In the case of `CCc1nc(N(CCC(=O)NC(C)C)CCc2ccccc2)c2ccccc2n1`, the Kd in experiment [1] (BPEK buffer, 20 nM DNA) was 5 [1, 23] μM.
As for `CN(CCc1ccccc1)c1nc(CCN)nc2ccccc12`, the binding result in experiment [2], in [9] and in [10] was “yes” each time. Moreover, the “apparent Kd” value was 24 µM in experiment [3]; more than 140 µM in experiment [4]; more than 140 µM in [5]; more than 140 µM in [6]; more than 140 µM in [7]; more than 140 µM in [8]. In [1] (BPEK buffer, 20 nM DNA), the Kd was 8 [4, 19] μM.
As for `CCOc1ccccc1CCNc1nc(CCN)nc2ccccc12`, the Kd in experiment [1] (BPEK buffer (8 mM sodium phosphate, 1 mM EDTA), 20 nM DNA) came to 3 µM. Besides, the values for the binding result in experiment [11] (K+ (concentration not stated)) and in [12] (K+ (concentration not stated)) were “yes” and “no”, respectively.
For the compound `NC(N)=NCCCS(=O)(=O)Nc1ccc(Nc2c3ccccc3nc3cc([N+](=O)[O-])ccc23)cc1`, in experiment [1] (BPEK buffer, 20 nM DNA, without calf thymus DNA, apparent), the “apparent Kd” value turned out to be 2 µM.
As for `CCCC(CCC)C1CCN(c2nc(CCN)nc3ccccc23)CC1`, the Kd in experiment [1] (BPEK buffer, 20 nM DNA) was 17 [7, 45] μM. Besides, the binding result in experiment [11] (K+ (concentration not stated)) is listed as “yes”; in experiment [12] (K+ (concentration not stated)) it was “no”.
Regarding `Cc1nc(NCCc2ccccc2)c2ccccc2n1`, in experiment [1] (BPEK buffer, 20 nM DNA), the Kd was 13 [7, 24] μM.
For the compound `CN(CCc1ccccc1)c1nc(-c2ccc(F)cc2)nc2ccccc12`, in experiment [1] (BPEK buffer, up to 200 μM, no reliable fit), the binding result is recorded as “no”.
For `COCCN1CC2CCC1CN(c1nc(N(C)C)nc(C)c1C)C2` (stereo not drawn), the binding result in [2] was “yes”. In addition, the “apparent Kd” value is 22 µM in experiment [3]; more than 140 µM in experiment [4]; more than 140 µM in experiment [5]; more than 140 µM in experiment [6]; more than 140 µM in experiment [7]; more than 140 µM in experiment [8].
Regarding `Cc1cnccc1NCCNC(=O)c1cccc(CC2CCNCC2)c1`, the results for the binding result in experiment [13], in experiment [11] (100 mM K+) and in experiment [12] (100 mM K+) were “no”, “yes” and “no”, respectively.
